{
  "source": "paper PMC12775653",
  "about": "“Quantitative dynamic granzyme B PET imaging to characterize novel combination immunotherapy response in preclinical glioblastoma models” (Theranostics, 2026)",
  "biological_target": "T1, granzyme B (Mus musculus, UniProt P04187)",
  "T1 construct": "from tissue; host or cells: intracranial GSC005-luc tumour in C57BL/6 mice; granzyme B comes from the host's cytotoxic immune cells",
  "T1 sequence (P04187 21-247)": "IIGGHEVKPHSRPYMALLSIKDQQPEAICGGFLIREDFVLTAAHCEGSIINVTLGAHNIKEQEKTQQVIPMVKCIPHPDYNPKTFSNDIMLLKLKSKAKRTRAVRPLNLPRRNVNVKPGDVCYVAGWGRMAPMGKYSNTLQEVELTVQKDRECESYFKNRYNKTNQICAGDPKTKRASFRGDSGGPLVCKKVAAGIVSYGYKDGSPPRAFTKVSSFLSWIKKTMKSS",
  "type": "in vivo, mouse (C57BL/6, orthotopic GSC005-luc GBM)",
  "description": "Dynamic [^64Cu]-NOTA-GZP PET was collected using a preclinical small animal PET/CT imaging system (GNEXT, Sofie Bioscience, Culver City, CA) seven days from the start of therapy. Scan consisted of an 80-min list-mode acquisition, with 100 ± 10 μCi (3.7 ± 0.37 MBq) of [^64Cu]-NOTA-GZP being administered via tail-vein catheter followed by a saline flush. Subsequently, a 5-min computed tomography (CT, voltage, 80 kVp; current, 150 μA) scan was collected for anatomical reference. A subset of mice (N = 5 treatment, 3 controls) was humanely euthanized, and brains were excised for a 1 h ex vivo PET/CT brain scan and, upon completion, placed in formalin and fixed overnight. Remaining mice were monitored longitudinally for survival.\nDynamic PET data was reconstructed using a 3D ordered-subset expectation maximization algorithm (24 subsets, 3 iterations) with a reconstructed voxel size of 0.5 × 0.5 × 0.5 mm^3 based on a 12 × 10 s, 6 × 30 s, 5 × 60 s, 10 × 300 s, 1 × 1200 s framing sequence (Figure 2A). PET sequences were rigidly registered to the reference anatomical CT scan. Voxel-wise conversion to standardized uptake value (SUV) was then performed based on the following equation:\nGSC005-luc orthotopic mouse models were developed and treated with single dose M002 followed by a dose of anti-PD1 on days 1, 4 and 7 (N = 22), or saline at similar timepoints (N = 9). 80-min dynamic [^64Cu]-NOTA-GZP PET/CT scans were performed at day 4 and 7 following treatment, with tumor and contralateral brain time activity curves being fitted to a 2TCM as selected based on prior comparative assessment. Metrics for average SUV, k1, k2, k3 and k4 were quantified on the tumor region with additional normalization to contralateral healthy brain (TBR).\nIn addition, anatomical MRI scans were collected prior to the start of treatment (D-1), and at days 3, 6 and 13 following treatment for anatomical PET/CT reference and monitoring of tumor volumes. Longitudinal monitoring was performed via BLI every three days. […] Response was defined based on a threshold of less than 20% increase in BLI signal one month following initial immunotherapy administration as previously reported.",
  "note": "* marks the point of attachment. NOTA = O=C(O)CN1CCN(CC(=O)O)CCN(CC(=O)*)CC1",
  "data": [
    {"substance": "{NOTA}-AGGIEFD-aldehyde [[^64Cu]-NOTA-GZP, NOTA-Ala-Gly-Gly-Ile-Glu-Phe-Asp-CHO (NOTA-GZP) radiolabeled with ^64Cu; granzyme B specific PET imaging agent]", "values": [
      {"measurement": "k3 (tracer binding rate), contralateral brain", "setting": "2TCM, combination immunotherapy-treated mice, four days following therapy, contralateral brain", "result": "0.04 ± 0.05", "unit": "min⁻¹"},
      {"measurement": "k3 (tracer binding rate), tumor", "setting": "2TCM, combination immunotherapy-treated mice, four days following therapy, tumor", "result": "0.13 ± 0.8", "unit": "min⁻¹"},
      {"measurement": "SUV TBR", "setting": "mouse, in vivo", "result": "2.50 ± 1.68"},
      {"measurement": "k1 TBR", "setting": "mouse, in vivo", "result": "1.18 ± 0.75"}
    ]}
  ]
}
